This is an account of results in patent US9284333B2, “Fused pyrroledicarboxamides and their use as pharmaceuticals” (SANOFI, priority 2012, dated 2016).

Human TASK-1 channels, sequence (O14649 whole entry): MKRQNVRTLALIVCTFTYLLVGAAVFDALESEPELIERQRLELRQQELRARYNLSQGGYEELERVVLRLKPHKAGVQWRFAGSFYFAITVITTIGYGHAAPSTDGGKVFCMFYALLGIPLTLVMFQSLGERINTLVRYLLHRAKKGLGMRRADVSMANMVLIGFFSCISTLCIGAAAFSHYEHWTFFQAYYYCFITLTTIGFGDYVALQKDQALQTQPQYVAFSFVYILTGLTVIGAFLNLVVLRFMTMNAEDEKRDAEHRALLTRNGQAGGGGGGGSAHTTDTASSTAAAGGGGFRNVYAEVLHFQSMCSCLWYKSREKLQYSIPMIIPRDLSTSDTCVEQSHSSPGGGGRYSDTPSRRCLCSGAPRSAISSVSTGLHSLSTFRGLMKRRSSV

One assay concerns the target Human TASK-1 channels (Homo sapiens (Human), UniProt O14649). Briefly: Determination of the activity on the TASK-1 channel in Xenopus oocytes (two-microelectrode voltage clamp). The assay is classed as cell-based. Conditions: compound concentration 5 μM. A digest of the protocol:
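Current during 500 ms pulses to 40 mV from a −90 mV hold was recorded in oocytes expressing human TASK-1 for two days after cRNA injection. Compounds were added cumulatively to the ND96 bath (pH 7.4, room temperature). IC50 came from dose-response fitting of inhibition relative to pre-compound current.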
In turn, `CC[C@@H](NC(=O)c1cc(C(=O)NCc2ccc(OC)nc2)n2c1COCC2)c1ccccc1` [16jg, 3,4-Dihydro-1H-pyrrolo[2,1-c][1,4]oxazine-6,8-dicarboxylic acid 6-[(6-methoxy-pyridin-3-ylmethyl)-amide] 8-[((R)-1-phenyl-propyl)-amide]] returned an inhibition at 5 µM of 80%.

The assay is the same for the next values; noted with them: human TASK-1 expressed in Xenopus oocytes, room temperature; read-out: IC50 value for TASK-1 inhibition.
Consider `CC[C@@H](NC(=O)c1cc(C(=O)N[C@H](CC)c2cccc(O)n2)n2c1COCC2)c1ccccc1` [16rh, 3,4-Dihydro-1H-pyrrolo[2,1-c][1,4]oxazine-6,8-dicarboxylic acid 6-{[(R)-1-(6-hydroxy-pyridin-2-yl)-propyl]-amide} 8-[((R)-1-phenyl-propyl)-amide]], for which the IC50 stood at 240 nM. For `CC[C@@H](NC(=O)c1cc(C(=O)N2CCCC2)n2c1COCC2)c1ccccc1Cl` [16cy, 6-(Pyrrolidine-1-carbonyl)-3,4-dihydro-1H-pyrrolo[2,1-c][1,4]oxazine-8-carboxylic acid [(R)-1-(2-chloro-phenyl)-propyl]-amide], the IC50 came to 210 nM. Still for that read-out and setting: in the case of `CC[C@@H](NC(=O)c1cc(C(=O)N2CCC[C@@H]2COC)c2n1CCOC2)c1ccccc1` [16kk, 8-((R)-2-Methoxymethyl-pyrrolidine-1-carbonyl)-3,4-dihydro-1H-pyrrolo[2,1-c][1,4]oxazine-6-carboxylic acid ((R)-1-phenyl-propyl)-amide] it was 130 nM; in that of `CC[C@@H](NC(=O)c1cc(C(=O)N2CC[C@@H](OC)C2)n2c1CCCC2)c1ccccc1` [16mg, 3-((R)-3-Methoxy-pyrrolidine-1-carbonyl)-5,6,7,8-tetrahydro-indolizine-1-carboxylic acid ((R)-1-phenyl-propyl)-amide], 840 nM.

Take `CC[C@@H](NC(=O)c1cc(C(=O)N2CCC[C@@H]2C)n2c1C(C)OCC2)c1ccccc1` (stereo partly drawn) [16lf, 1-Methyl-6-((S)-2-methyl-pyrrolidine-1-carbonyl)-3,4-dihydro-1H-pyrrolo[2,1-c][1,4]oxazine-8-carboxylic acid ((R)-1-phenyl-propyl)-amide]: the IC50 stood at 110 nM. Same read-out and setting: in the case of `CC[C@@H](NC(=O)c1cc(C(=O)N2CCC[C@@H]2C)n2c1COCC2)c1ccc(F)cc1Cl` [16u, 6-((S)-2-Methyl-pyrrolidine-1-carbonyl)-3,4-dihydro-1H-pyrrolo[2,1-c][1,4]oxazine-8-carboxylic acid [(R)-1-(2-chloro-4-fluoro-phenyl)-propyl]-amide] it was 49 nM; in that of `CC[C@@H](NC(=O)c1cc(C(=O)N2CCC[C@@H]2C)n2c1COCC2)c1ccc(F)c(C(F)(F)F)c1` [16bo, 6-((S)-2-Methyl-pyrrolidine-1-carbonyl)-3,4-dihydro-1H-pyrrolo[2,1-c][1,4]oxazine-8-carboxylic acid [(R)-1-(4-fluoro-3-trifluoromethyl-phenyl)-propyl]-amide], 160 nM. Still for that read-out and setting: in the case of `CCC(NC(=O)c1cc(C(=O)N[C@H](CC)c2ccccc2)c2n1CCOC2)c1cccc(S(N)(=O)=O)c1` (stereo partly drawn) [16ji, 3,4-Dihydro-1H-pyrrolo[2,1-c][1,4]oxazine-6,8-dicarboxylic acid 8-[((R)-1-phenyl-propyl)-amide] 6-{[1-(3-sulfamoyl-phenyl)-propyl]-amide}] it was 1900 nM; in that of `CC[C@@H](NC(=O)c1cc(C(=O)N[C@@H](C)C2CC2)n2c1CCCC2)c1ccccc1` [16mz, 5,6,7,8-Tetrahydro-indolizine-1,3-dicarboxylic acid 3-[((S)-1-cyclopropyl-ethyl)-amide] 1-[((R)-1-phenyl-propyl)-amide]], 42 nM; in that of `CC[C@@H](NC(=O)c1cc(C(=O)N[C@H](CC)c2cncc(C(F)(F)F)c2)n2c1COCC2)c1ccccc1` [16hn, 3,4-Dihydro-1H-pyrrolo[2,1-c][1,4]oxazine-6,8-dicarboxylic acid 8-[((R)-1-phenyl-propyl)-amide] 6-{[(R)-1-(5-trifluoromethyl-pyridin-3-yl)-propyl]-amide}], 690 nM. As for `CC[C@@H](NC(=O)c1cc(C(=O)N2CCCC2C(C)(C)C)n2c1COCC2)c1ccccc1` (stereo partly drawn) [16ex, 6-(2-tert-Butyl-pyrrolidine-1-carbonyl)-3,4-dihydro-1H-pyrrolo[2,1-c][1,4]oxazine-8-carboxylic acid ((R)-1-phenyl-propyl)-amide], the IC50 stood at 180 nM. Regarding `CC[C@@H](NC(=O)c1cc(C(=O)NCC2CC2)n2c1COCC2)c1ccccc1` [16gc, 3,4-Dihydro-1H-pyrrolo[2,1-c][1,4]oxazine-6,8-dicarboxylic acid 6-cyclopropylmethyl-amide 8-[((R)-1-phenyl-propyl)-amide]], the IC50 turned out to be 100 nM. On to `CC[C@@H](NC(=O)c1cc(C(=O)NCC2CCCC2)n2c1CCCC2)c1ccccc1` [16my, 5,6,7,8-Tetrahydro-indolizine-1,3-dicarboxylic acid 3-cyclopentylmethyl-amide 1-[((R)-1-phenyl-propyl)-amide]], for which the IC50 was determined as 120 nM. Still for that read-out and setting: the figure for `CC[C@@H](NC(=O)c1cc(C(=O)NC(C)C)n2c1COCC2)c1ccccc1` [16ge, 3,4-Dihydro-1H-pyrrolo[2,1-c][1,4]oxazine-6,8-dicarboxylic acid 6-isopropylamide 8-[((R)-1-phenyl-propyl)-amide]] is 690 nM; for `CC[C@@H](NC(=O)c1cc(C(=O)N2CCCC2)n2c1COCC2)c1ccccc1` [16cx, 6-(Pyrrolidine-1-carbonyl)-3,4-dihydro-1H-pyrrolo[2,1-c][1,4]oxazine-8-carboxylic acid ((R)-1-phenyl-propyl)-amide] it is 74 nM; for `CC[C@@H](NC(=O)c1cc(C(=O)N(C)CC2CC2)n2c1COCC2)c1ccccc1` [16he, 3,4-Dihydro-1H-pyrrolo[2,1-c][1,4]oxazine-6,8-dicarboxylic acid 6-(cyclopropylmethyl-methyl-amide) 8-[((R)-1-phenyl-propyl)-amide]] it is 490 nM. On to `CC[C@@H](NC(=O)c1cc(C(=O)N[C@H](CC)c2ccccc2)n2c1SCC2)c1ccccc1` [16kv, 2,3-Dihydro-pyrrolo[2,1-b]thiazole-5,7-dicarboxylic acid bis-[((R)-1-phenyl-propyl)-amide]], for which the IC50 came out at 320 nM. With `CC[C@@H](NC(=O)c1cc(C(=O)N2CCC[C@@H]2C)n2c1COCC2)c1ccnc(C(F)(F)F)c1F` [16bu, 6-((S)-2-Methyl-pyrrolidine-1-carbonyl)-3,4-dihydro-1H-pyrrolo[2,1-c][1,4]oxazine-8-carboxylic acid [(R)-1-(3-fluoro-2-trifluoromethyl-pyridin-4-yl)-propyl]-amide], the IC50 is 210 nM. Take `CC[C@@H](NC(=O)c1cc(C(=O)NCc2cc(OC)cc(OC)c2)n2c1COCC2)c1ccccc1` [16gz, 3,4-Dihydro-1H-pyrrolo[2,1-c][1,4]oxazine-6,8-dicarboxylic acid 6-(3,5-dimethoxy-benzylamide) 8-[((R)-1-phenyl-propyl)-amide]]: the IC50 stood at 2200 nM. `CC[C@@H](NC(=O)c1cc(C(=O)NCc2cncc(F)c2)n2c1COCC2)c1ccccc1` [16gu, 3,4-Dihydro-1H-pyrrolo[2,1-c][1,4]oxazine-6,8-dicarboxylic acid 6-[(5-fluoro-pyridin-3-ylmethyl)-amide] 8-[((R)-1-phenyl-propyl)-amide]]: the half-inhibitory concentration (IC50) turned out to be 640 nM. Still for that read-out and setting: in the case of `CC[C@@H](NC(=O)c1cc(C(=O)N[C@H](C)c2ccc(F)cc2)n2c1COCC2)c1ccc(OC)nc1` [16du] it was 220 nM; in that of `CC[C@@H]1CCCN1C(=O)c1cc(C(=O)N[C@H](CC)c2ccccc2)c2n1CCOC2` (racemic) [16fd, 6-((R)-2-Ethyl-pyrrolidine-1-carbonyl)-3,4-dihydro-1H-pyrrolo[2,1-c][1,4]oxazine-8-carboxylic acid ((R)-1-phenyl-propyl)-amide], 730 nM; in that of `CC[C@@H](NC(=O)c1cc(C(=O)N(CCO)CC2CC2)n2c1COCC2)c1ccccc1` [16hk, 3,4-Dihydro-1H-pyrrolo[2,1-c][1,4]oxazine-6,8-dicarboxylic acid 6-[cyclopropylmethyl-(2-hydroxy-ethyl)-amide] 8-[((R)-1-phenyl-propyl)-amide]], 1400 nM. Turning to `CC[C@@H](NC(=O)c1cc(C(=O)N2CCC[C@@H]2C)n2c1COCC2)c1ccc(F)cc1` [16az, 6-((S)-2-Methyl-pyrrolidine-1-carbonyl)-3,4-dihydro-1H-pyrrolo[2,1-c][1,4]oxazine-8-carboxylic acid [(R)-1-(4-fluoro-phenyl)-propyl]-amide], the 50% inhibitory concentration (IC50) was 120 nM. Same read-out and setting: the figure for `CC[C@@H](NC(=O)c1cc(C(=O)N[C@H](C)c2ccc(F)cc2)n2c1COCC2)c1ccccc1` [16gl, 3,4-Dihydro-1H-pyrrolo[2,1-c][1,4]oxazine-6,8-dicarboxylic acid 6-{[(R)-1-(4-fluoro-phenyl)-ethyl]-amide} 8-[((R)-1-phenyl-propyl)-amide]] is 42 nM; for `CC[C@@H](NC(=O)c1cc(C(=O)N[C@H](C)c2ccc(F)cc2)n2c1COCC2)c1ncc(C(F)(F)F)cn1` [16ed, 3,4-Dihydro-1H-pyrrolo[2,1-c][1,4]oxazine-6,8-dicarboxylic acid 6-{[(R)-1-(4-fluoro-phenyl)-ethyl]-amide} 8-{[(R)-1-(5-trifluoromethyl-pyrimidin-2-yl)-propyl]-amide}] it is 300 nM.

For `CC[C@@H](NC(=O)c1cc(C(=O)N2CCN(c3ccccn3)C[C@@H]2C)n2c1COCC2)c1ccccc1` [16fs, 6-((S)-2-Methyl-4-pyridin-2-yl-piperazine-1-carbonyl)-3,4-dihydro-1H-pyrrolo[2,1-c][1,4]oxazine-8-carboxylic acid ((R)-1-phenyl-propyl)-amide], the half-inhibitory concentration (IC50) came to 670 nM. `CC[C@@H](NC(=O)c1cc(C(=O)N2CCC[C@@H]2C)n2c1COCC2)c1ccc(Cl)c(Cl)c1` [16ci, 6-((S)-Methyl-pyrrolidine-1-carbonyl)-3,4-dihydro-1H-pyrrolo[2,1-c][1,4]oxazine-8-carboxylic acid [(R)-1-(3,4-dichloro-phenyl)-propyl]-amide]: the IC50 was determined as 30 nM.

As a reminder, the inhibition is the change of the read-out against control, counted positive when it falls. Lower therefore signals a response near the control. As usually defined, the IC50 is the concentration needed to halve the response being measured.
